The source of these data is patent publication US20260041661A1, “THREE-COMPONENT PRODRUG, PHARMACEUTICAL COMPOSITION THEREOF, AND MEDICAL USE THEREOF” (J2H BIOTECH INC., priority 2022, published 2026).

The conditions of series [1]: cited from earlier work.
The conditions of series [2]: RRMS patients, DRF 462 mg twice daily for 5 weeks; cited from earlier work.
The test system of series [3] is EAE mice (experimental autoimmune encephalomyelitis). Description: Efficacy in EAE animal model of multiple sclerosis: clinical score. Particulars: for Clinical Score (Day 21): day 2-21, score 0 to 5, vehicle group 3.2. The class given is in vivo, C57BL/6 mice.
Series [4] concerns CD4 T cells, CD8 T cells, Th1 cells and Th17 cells. Description: Immune cell infiltration in EAE mice by flow cytometry. Particulars: for CD8 T Cell (%) / CD4 T Cell (%): tissue not given; for CD8 T Cell (%): vehicle group 16.0; for CD4 T Cell (%): vehicle group 23.2; for Th17 Cell (%): vehicle group 12.4; for Th1 Cell (%): vehicle group 15.4. The class given is in vivo, C57BL/6 mice.

The subject of a further series is prostaglandin D2 (PGD2). In words: Toxicity evaluation: flushing side effect by blood prostaglandin D2 concentration (ELISA). The class given is in vivo. As to conditions: C57BL6 male mice, 165.6 mg/kg vs DMF 60 mg/kg, 5 minutes after administration. The protocol:
The flushing phenomenon was confirmed through analysis of the concentration of prostaglandin D2 (PGD2) in the blood. PGD2 is a bio-derived substance closely related to the flushing phenomenon, and the concentration analysis of PGD2 in the blood is known as a standard test method for predicting the side effects of drugs. (The journal of pharmacology and experimental therapeutics, 2008, 327(3), 665.) The test method was conducted by dividing C57BL6 male mice into three groups as test animals. […] PGD2 present in the collected blood was measured using an Elisa kit (#CSB-E14022m, CUSABIO).

Where [5] appears, read: EVOLVE-MS-1 phase 3 clinical program.

Structures can show the parent of a compound that is named as a salt.

On to `COC(=O)/C=C/C(=O)OCCN1C(=O)CCC1=O` [diroximel fumarate], for which, in series [1] (setting [5]), the “Subjects who discontinued administration” value is given as 14.9% and the “Subjects who discontinued due to drug-induced side effects” value is on record as 6.3%. Moreover, in series [1] (all patients administered DRF, phase 3 clinical trials), the “Incidence of gastrointestinal side effects (GI TEAEs)” value is “more than 30%”. In addition, the “Decrease of incidence of gastrointestinal side effects compared to DMF group” value in series [1] (phase 3 clinical trials, vs the 40% incidence with DMF) is listed as 10%. In series [2], the “Diarrhea, frequency reported” value is on record as 15.4%; the “Flushing, frequency reported” value was 32.8%; the “Nausea, frequency reported” value was 14.6%.

Take `COC(=O)/C=C/C(=O)OC` [Dimethyl fumarate]: the “Clinical Score (Day 21)” value in series [3] (DMF 30 mpk oral twice a day) is on record as 2.3. In addition, the “Clinical Score (Day 21)” value in series [3] (DMF 60 mpk oral twice a day) is 1.3. For the same compound, in series [3] (low (G3, 30 mg/kg) and high (G4, 60 mg/kg) dose), the “Severity of the disease (clinical score) vs negative control” value was “significantly reduced the severity of the disease”. For the same compound, in series [4] (DMF 30 mpk), the “CD8 T Cell (%)” value is 8.8%, the “CD4 T Cell (%)” value came to 13.1%, the “Th17 Cell (%)” value worked out at 10.1% and the “Th1 Cell (%)” value is recorded as 10.2%. In series [4] (DMF 60 mpk), the “CD8 T Cell (%)” value worked out at 8.5%, the “CD4 T Cell (%)” value was 13.8%, the “Th17 Cell (%)” value came out at 6.3% and the “Th1 Cell (%)” value is reported as 7.9%.

As to `COC(=O)/C=C/C(=O)Oc1ccc(COC(=O)c2ccccc2OC(C)=O)cc1` [Example 1, 4-((acetoxybenzoyloxy)methyl)phenyl Methyl Fumarate], the “Clinical Score (Day 21)” value in series [3] (chemical formula 1 82.8 mpk oral twice a day) is 2.0. In addition, the “Clinical Score (Day 21)” value in series [3] (chemical formula 1 165.6 mpk oral twice a day) came to 1.5. The Clinical score improvement result in series [3] (low dose (G5, 82.8 mg/kg) and high dose (G6, 165.6 mg/kg)) is given as “significant clinical score improvement effects”. Moreover, the “Infiltration rate of CD4 and CD8 T cells in the lymph nodes compared to disease-induced group (G2)” value in series [4] (FIG. 1, low-dose (G5) and high-dose (G6)) is on record as “significant decrease”. In series [4] (FIG. 2, low-dose (G5) and high-dose (G6)), the “Infiltration rate of CD4 and CD8 T cells in the central nervous system compared to disease-induced group (G2)” value is on record as “significant decrease”. Besides, the “Infiltration rate of Th1 and Th17 cells in the lymph nodes compared to disease-induced group (G2)” value in series [4] (FIG. 3, low-dose (G5) and high-dose (G6)) was “decrease”. For the same compound, in series [4] (chemical formula 1 82.8 mpk), the “CD8 T Cell (%)” value is given as 7.8%, the “CD4 T Cell (%)” value was determined as 11.2%, the “Th17 Cell (%)” value worked out at 8.8% and the “Th1 Cell (%)” value was determined as 8.8%. Further, in series [4] (chemical formula 1 165.6 mpk), the “CD8 T Cell (%)” value worked out at 4.7%, the “CD4 T Cell (%)” value came out at 6.5%, the “Th17 Cell (%)” value is recorded as 7.5% and the “Th1 Cell (%)” value stood at 6.4%. Further, the “Decrease of blood PGD2 compared to the group administered with dimethyl fumarate” value with prostaglandin D2 (PGD2) is reported as 76.6%.
